Common to all, as to test: Phosphomimetic ProP-PD selection with NGS
For one test, the system named is Scribble PDZ3. The test is classed as binding, human. Particulars: bait Scribble PDZ3. How it is done:
(§1) Phage selections were carried out for four rounds following a protocol by Huang and Sidhu (Huang & Sidhu, 2011) with minor modifications. Non‐specific binding phage was removed by pre‐selections against immobilized GST throughout the selection. The selections against the (pre‐)phosphorylated wild‐type library were performed in 50 mM HEPES (pH 7.4) and 150 mM NaCl (HBS) following the same procedure after pre‐phosphorylation of the library.
(§2) • Immobilize proteins (15 μg in 100 μl PBS) in a 96‐well MaxiSorp microtiter plate (NUNC) overnight at 4°C. • Start a 2YT culture of E. coli Omnimax supplemented with 100 μg/ml tetracycline to retain the F pilus epitope. • Block the wells with 200 μl 0.5% BSA in PBS for 2 h at 4°C. • Precipitate naïve phage library (10^11 cfu per selection) or amplified phage pool from the previous round of selection by adding one‐fifth the volume of PEG/NaCl. • Incubate on ice for 10 min, and pellet precipitated phage by centrifugation at 5,300 g for 15 min. Resuspend the phage pellet in 100 μl PBS per selection. • Add 100 μl of phage solution to the GST‐coated pre‐selection wells and incubate for 1 h. • Transfer the phage solution to the immobilized target proteins and allow it to bind for 2 h at 8°C. • Wash the plate four times with 200 μl cold wash buffer (PBS, 0.05% Tween‐20). • Elute bound phage by incubation with 100 μl log phase (0.6–0.8 OD600) E. coli Omnimax for 30 min at 37°C with shaking (200 RPM). • Add 10^12 cfu/ml M13K07 helper phage for hyperinfection of the bacteria and incubate as above for 45 min. • Transfer the bacterial culture to 10 ml 2YT supplemented with 50 μg/ml carbenicillin, 25 μg/ml kanamycin, and 300 μM IPTG and incubate overnight at 37°C while shaking. • Perform phage pool ELISA to monitor the progress of the selection as described previously (Huang & Sidhu, 2011).
(§3) The naïve library and the enriched phage pools of the third day of selection were amplified and barcoded by PCR and analyzed by NGS as described elsewhere (McLaughlin & Sidhu, 2013; Ivarsson et al, 2014). The reads were demultiplexed using the barcode sequences and filtered by discarding sequences with a Phred quality score under 30. Sequences were mapped to the original library using Bowtie (Langmead et al, 2009) with two mismatches between reads and library sequence. Nucleotide mutations leading to amino acid substitutions were subsequently removed. Cutoff values of NGS counts were assigned for each pool. PWMs were generated based on the remaining peptides (aligned on the C‐termini) using WebLogo (Crooks et al, 2004).
(§4) However, there was no significant correlation of the actual read counts (selection “strength”) and the initial representation in the library, reflecting the strong selection during phage display (wt+mimetic: P‐value: 0.49, ρ = −0.08, mimetic only: P‐value: 0.069, ρ = −0.2, wt only: P‐value: 0.12, ρ = 0.17). Consequently, the amount of reads for each binder after phage display is not a function of the amount of input reads in the naïve library and no modeling based on the input library frequencies to score the interactions is necessary. To allow for comparison between replicate selections, we used the fraction of NGS reads within a certain set, instead of the absolute number of NGS reads, as the absolute numbers differ between different NGS batches.

The next test has as its target T1, Scribble PDZ1 (Homo sapiens, UniProt Q14160).
T1 construct: human Scribble PDZ1 aa 719–829 in; made in house; host or cells: E. coli BL21 Gold (DE3)
Format: binding. To be noted: bait Scribble PDZ1; mean of selections 1-3. As to the method:
as §1, §2, §3, §4

In a further test the target is T2, DLG1 PDZ2 (Homo sapiens, UniProt Q12959).
T2 construct: human DLG1 PDZ2 aa 311–407 in a modified pRSET vector 40; made in house; host or cells: E. coli BL21 Gold (DE3)
T2 sequence (Q12959 311-407): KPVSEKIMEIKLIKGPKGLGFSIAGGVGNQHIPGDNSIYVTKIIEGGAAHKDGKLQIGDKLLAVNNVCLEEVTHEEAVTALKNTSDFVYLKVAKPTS
The test is classed as binding. Particulars: mean of selections 1-3, bait DLG1 PDZ2. As to the method:
as §1, §2, §3, §4

Setting [1] is: mean of selections 1-3, phosphomimetic peptide.
[2] abbreviates: mean of selections 1-3, wild type peptide.

T1 sequence (Q14160 719-829): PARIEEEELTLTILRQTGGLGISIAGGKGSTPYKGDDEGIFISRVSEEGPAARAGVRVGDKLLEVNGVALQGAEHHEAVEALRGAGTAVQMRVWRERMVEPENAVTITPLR

In the case of PLHELETEL, in the test on Scribble PDZ3 (setting [1]), the “Mean fraction #NGS counts mimetic peptide / total count selection” value worked out at 0.00248.

For the sequence PLHELETSL, the “Mean fraction #NGS counts mimetic peptide / total count selection” value on Scribble PDZ1 and in the test on Scribble PDZ3 (mean over selections 1-3) was 0 throughout.

Take KLSEIESDV: the “Mean fraction #NGS counts mimetic peptide / total count selection” value was 0 on DLG1 PDZ2 and 6.057e-6 in the test on Scribble PDZ3 (mean over selections 1-3).

With GLMKRRSEV, the “Mean fraction #NGS counts mimetic peptide / total count selection” value on DLG1 PDZ2 is recorded as 6.06e-5.

On to LAPNIISQL, for which the “Mean fraction #NGS counts wt peptide / total counts selection” value on Scribble PDZ1 came to 0.000119.

Turning to RPLRRESEI, the “Mean fraction #NGS counts mimetic peptide / total count selection” value at DLG1 PDZ2 came out at 0. The results for the “Mean fraction #NGS counts wt peptide / total counts selection” value at DLG1 PDZ2 and in the test with Scribble PDZ3 (mean over selections 1-3) were 3.748e-5 and 8.219e-5, respectively.

In the case of ERLEYETTL, the “Mean fraction #NGS counts wt peptide / total counts selection” value in the test with Scribble PDZ3 (setting [2]) and in the test with Scribble PDZ3 (mean over selections 1-3) was 0.0004529 in each case.

As for IEWLAFSVL, the “Mean fraction #NGS counts mimetic peptide / total count selection” value on Scribble PDZ1 came out at 4.38e-5.

Turning to SRKRTSSFL, the “Mean fraction #NGS counts wt peptide / total counts selection” value with Scribble PDZ3 (mean over selections 1-3) was determined as 0.

Turning to VTEERETNI, in the test on Scribble PDZ3 (mean over selections 1-3), the “Mean fraction #NGS counts mimetic peptide / total count selection” value worked out at 4.038e-6.

On to HFESLESEV, for which the “Mean fraction #NGS counts mimetic peptide / total count selection” value at DLG1 PDZ2 amounted to 0.

Regarding DSEILETVV, at DLG1 PDZ2, the “Mean fraction #NGS counts mimetic peptide / total count selection” value was determined as 0.

On to LSIEKEEKL, for which, in the test on Scribble PDZ3 (mean over selections 1-3), the “Mean fraction #NGS counts mimetic peptide / total count selection” value is recorded as 3.894e-6.

Regarding PIHSLETEL, the “Mean fraction #NGS counts mimetic peptide / total count selection” value is listed as 0.002226 at Scribble PDZ1 and 0.002436 in the test on Scribble PDZ3 (mean over selections 1-3).

For EIDLWETAL, the “Mean fraction #NGS counts mimetic peptide / total count selection” value in the test with Scribble PDZ3 (mean over selections 1-3) is reported as 0.0004512.

Turning to VRSKLPSNL, the “Mean fraction #NGS counts wt peptide / total counts selection” value at Scribble PDZ1 is 4.38e-5.

Turning to PIHSLEESL, the “Mean fraction #NGS counts mimetic peptide / total count selection” value is 0 at Scribble PDZ1 and 7.932e-6 with Scribble PDZ3 (mean over selections 1-3).

With KKRMVESPL, the “Mean fraction #NGS counts wt peptide / total counts selection” value in the test on Scribble PDZ3 (mean over selections 1-3) came to 0.000138.

As for VTSERETNI, in the test with Scribble PDZ3 (mean over selections 1-3), the “Mean fraction #NGS counts wt peptide / total counts selection” value is 0.001424.

As for GSGGRQSVV, the “Mean fraction #NGS counts wt peptide / total counts selection” value in the test with DLG1 PDZ2 (wild type peptide) is reported as 0.003121.

As for RATSWYSPY, the “Mean fraction #NGS counts wt peptide / total counts selection” value at DLG1 PDZ2 is listed as 0.002312.

In the case of HEIKQETAV, at DLG1 PDZ2, the “Mean fraction #NGS counts mimetic peptide / total count selection” value came to 0.0002182.

For MRLQEETSV, on DLG1 PDZ2, the “Mean fraction #NGS counts mimetic peptide / total count selection” value is on record as 0.0002419.

Turning to SIDLWETAL, the “Mean fraction #NGS counts wt peptide / total counts selection” value in the test with Scribble PDZ3 (mean over selections 1-3) came out at 0.004105.

As to IPLTRTTTF, the “Mean fraction #NGS counts wt peptide / total counts selection” value with Scribble PDZ3 (mean over selections 1-3) was determined as 0.

As to NSTNMESSL, the “Mean fraction #NGS counts wt peptide / total counts selection” value with Scribble PDZ3 (setting [2]) was found to be 0.

On to GLMKRRSSV, for which, at DLG1 PDZ2, the “Mean fraction #NGS counts wt peptide / total counts selection” value is recorded as 0.

Take RPHTNETEL: the results for the “Mean fraction #NGS counts mimetic peptide / total count selection” value on Scribble PDZ1 and with Scribble PDZ3 (mean over selections 1-3) were 0.008773 and 0.00587, respectively.

HFSSLESEV: at DLG1 PDZ2, the “Mean fraction #NGS counts wt peptide / total counts selection” value is on record as 5.084e-5.

Turning to IEFTQTEQF, the “Mean fraction #NGS counts mimetic peptide / total count selection” value on DLG1 PDZ2 stood at 0.001455.

Consider LAPNIIEQL, for which the “Mean fraction #NGS counts mimetic peptide / total count selection” value in the test with Scribble PDZ1 is on record as 2.8202e-5.

KYVDAETEL: the “Mean fraction #NGS counts mimetic peptide / total count selection” value in the test with Scribble PDZ3 (setting [1]) is reported as 0.0004194.

On to EPTVHVTEL, for which the “Mean fraction #NGS counts mimetic peptide / total count selection” value at Scribble PDZ1 is recorded as 0.0001138; in the test with Scribble PDZ3 (mean over selections 1-3), 1.586e-5.

As to DKEEFLTWL, the “Mean fraction #NGS counts mimetic peptide / total count selection” value stood at 0 at Scribble PDZ1 and 0.0001294 in the test with Scribble PDZ3 (mean over selections 1-3).

As to QKFRAETAL, the “Mean fraction #NGS counts mimetic peptide / total count selection” value on Scribble PDZ1 was 0.002401; in the test with Scribble PDZ3 (mean over selections 1-3), 0.001978.

As for ISFTQTSQF, the “Mean fraction #NGS counts wt peptide / total counts selection” value on DLG1 PDZ2 was determined as 6.749e-6.

For MKRLTSTRL, the “Mean fraction #NGS counts wt peptide / total counts selection” value is on record as 2.8701e-5 at Scribble PDZ1 and 3.6122e-5 in the test on Scribble PDZ3 (mean over selections 1-3).

The values are drawn from PMC6100724, “Proteome‐wide analysis of phospho‐regulated PDZ domain interactions” (Molecular Systems Biology, 2018).
